22 compounds from US20160002204A1 (Board of Regents, The University of Texas System, priority 2014, published 2016) can be followed below.

The term pIC50 denotes the negative decadic logarithm of the IC50, by convention in mol/L. As usually defined, the pEC50 is the EC50 on a negative log10 scale, so that one unit is a factor of ten.

SMILES strings stand for the structures. pEC50, pIC50: −log10 of the molar value.

Assay [1] deals with T1, GLS1 (purified recombinant human GAC) (Homo sapiens, UniProt O94925).
T1 sequence (O94925 55-598 isoform O94925-3 limits assumed): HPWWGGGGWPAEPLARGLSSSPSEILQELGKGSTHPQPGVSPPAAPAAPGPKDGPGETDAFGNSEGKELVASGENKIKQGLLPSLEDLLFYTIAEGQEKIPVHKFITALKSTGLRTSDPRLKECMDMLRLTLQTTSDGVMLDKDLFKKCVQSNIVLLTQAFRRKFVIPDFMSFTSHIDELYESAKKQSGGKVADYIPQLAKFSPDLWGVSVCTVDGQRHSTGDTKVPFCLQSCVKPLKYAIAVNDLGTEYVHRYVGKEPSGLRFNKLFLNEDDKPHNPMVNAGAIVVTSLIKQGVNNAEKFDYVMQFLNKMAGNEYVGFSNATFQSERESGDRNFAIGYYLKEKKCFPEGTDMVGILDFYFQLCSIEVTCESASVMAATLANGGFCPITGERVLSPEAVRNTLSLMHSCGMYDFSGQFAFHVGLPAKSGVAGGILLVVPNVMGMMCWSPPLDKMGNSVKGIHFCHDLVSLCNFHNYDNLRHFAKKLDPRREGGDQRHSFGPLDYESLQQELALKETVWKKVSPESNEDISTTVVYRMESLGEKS
Kind of assay: GLS1 enzymatic activity assay (dual-coupled, Amplex UltraRed/resorufin). It is filed as biochemical. Put shortly:
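Recombinant human GAC (2 nM) preincubated with 50 mM potassium phosphate, then inhibitor (10 min each, RT); 1 mM glutamine, pH 7.4 Hepes buffer, 1% DMSO. Glutamate coupled via glutamate oxidase/HRP to resorufin (Ex 530/Em 590), kinetic or 20-min endpoint; IC50 by four-parameter logistic fit.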

The subject of assay [2] is A549 cells. Kind of assay: A549 proliferation (viability) assay, Cell Titer Fluor, 72 hours. Type of assay: cell-based. Particulars: Homo sapiens. A digest of the protocol:
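Seed A549 at 1000 cells/well and culture 24 h. Add compound (final DMSO 0.5%) and incubate 72 h at 37 °C. Add Cell Titer Fluor, mix 15 min, incubate 30 min, read fluorescence and fit EC50 by four-parameter logistic.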

Take `O=C(Cc1ccccc1)Nc1ccn(CCC(F)Cn2cc(C(=O)NCc3ncccc3F)nn2)c(=O)c1` (centres unmarked) [Example 151, 1-{2-fluoro-4-[2-oxo-4-(2-phenylacetamido)-1,2-dihydropyridin-1-yl]butyl}-N-[(3-fluoropyridin-2-yl)methyl]-1H-1,2,3-triazole-4-carboxamide]: the pIC50 in assay [1] is 6.30 to 7.00. Further, the negative logarithm of the EC50 (pEC50) in assay [2] was 5.30 to 6.30.

`CC(C)CC(=O)Nc1ccn(CCCCn2cc(C(=O)NCc3ccccn3)nn2)c(=O)c1` [Example 38, 1-{4-[4-(3-methylbutanamido)-2-oxo-1,2-dihydropyridin-1-yl]butyl}-N-(pyridin-2-ylmethyl)-1H-1,2,3-triazole-4-carboxamide]: in assay [1], the pIC50 was 5.30 to 6.30. For the same compound, the pEC50 in assay [2] was less than 5.30.

For `O=C(Nc1ccn(CCC(F)Cn2cc(C(=O)NCc3cc(C(F)(F)F)ccn3)nn2)c(=O)n1)OC1CCC1` (centres unmarked) [Example 410, cyclobutyl N-(1-{3-fluoro-4-[4-({[4-(trifluoromethyl)pyridin-2-yl]methyl}carbamoyl)-1H-1,2,3-triazol-1-yl]butyl}-2-oxo-1,2-dihydropyrimidin-4-yl)carbamate], the pIC50 in assay [1] is 6.30 to 7.00. This compound also had a pEC50 in assay [2] of 5.30 to 6.30.

As to `O=C(CC1CCC1)Nc1ccn(CCC(F)Cn2cc(C(=O)NCc3cccc(C(F)(F)F)n3)nn2)c(=O)c1F` (centres unmarked) [Example 336, 1-{4-[4-(2-cyclobutylacetamido)-3-fluoro-2-oxo-1,2-dihydropyridin-1-yl]-2-fluorobutyl}-N-{[6-(trifluoromethyl)pyridin-2-yl]methyl}-1H-1,2,3-triazole-4-carboxamide], the pIC50 in assay [1] was more than 7.00. In addition, the pEC50 in assay [2] is more than 7.00.

`CC(=O)Nc1nnc(CCCCn2ccc(NC(=O)CC3CCCC3)c(F)c2=O)s1` [Example 505, 2-cyclopentyl-N-{1-[4-(5-acetamido-1,3,4-thiadiazol-2-yl)butyl]-3-fluoro-2-oxo-1,2-dihydropyridin-4-yl}acetamide]: in assay [1], the pIC50 is more than 7.00. The same compound had a pEC50 in assay [2] of 5.30 to 6.30.

With `O=C(Cc1ccccc1)Nc1nnc(CCCCn2ccc(NC(=O)CC3CCCC3)c(F)c2=O)s1` [Example 502, 2-cyclopentyl-N-(3-fluoro-2-oxo-1-{4-[5-(2-phenylacetamido)-1,3,4-thiadiazol-2-yl]butyl}-1,2-dihydropyridin-4-yl)acetamide], in assay [1], the pIC50 is more than 7.00. Also, the pEC50 in assay [2] is 6.30 to 7.00.

`O=C(Cc1ccccn1)Nc1ccn(CCC(F)Cn2cc(C(=O)NCc3cccc(C(F)(F)F)c3)nn2)c(=O)c1` (centres unmarked) [Example 183, 1-(2-fluoro-4-{2-oxo-4-[2-(pyridin-2-yl)acetamido]-1,2-dihydropyridin-1-yl}butyl)-N-{[3-(trifluoromethyl)phenyl]methyl}-1H-1,2,3-triazole-4-carboxamide]: the pIC50 in assay [1] was more than 7.00. Besides, the pEC50 in assay [2] is 5.30 to 6.30.

As for `O=C(NCc1cc(C(F)(F)F)ccn1)c1cn(CC(F)CCn2ccc(COc3cccc(F)c3)cc2=O)nn1` (centres unmarked) [Example 482, 1-{2-fluoro-4-[4-(3-fluorophenoxymethyl)-2-oxo-1,2-dihydropyridin-1-yl]butyl}-N-{[4-(trifluoromethyl)pyridin-2-yl]methyl}-1H-1,2,3-triazole-4-carboxamide], the pIC50 in assay [1] was more than 7.00. Besides, the pEC50 in assay [2] is 6.30 to 7.00.

For `CC(C)(C)OC(=O)Nc1ccn(CCC(F)Cn2cc(C(=O)NCc3cccc(OC(F)(F)F)c3)nn2)c(=O)c1` (centres unmarked) [Example 234, tert-butyl N-(1-{3-fluoro-4-[4-({[3-(trifluoromethoxy)phenyl]methyl]carbamoyl)-1H-1,2,3-triazol-1-yl]butyl}-2-oxo-1,2-dihydropyridin-4-yl)carbamate], the negative-log IC50 (pIC50) in assay [1] is more than 7.00. In assay [2], this compound showed a pEC50 of 6.30 to 7.00.

`O=C(NCc1cccc(OC(F)(F)F)c1)c1cn(CC(F)CCn2ccc(COc3ccc(Cl)cc3)cc2=O)nn1` (centres unmarked) [Example 477, 1-{4-[4-(4-chlorophenoxymethyl)-2-oxo-1,2-dihydropyridin-1-yl]-2-fluorobutyl}-N-{[3-(trifluoromethoxy)phenyl]methyl}-1H-1,2,3-triazole-4-carboxamide]: the pIC50 in assay [1] was more than 7.00. In addition, the pEC50 in assay [2] was 6.30 to 7.00.

With `O=C(CC1CCC1)Nc1ccn(CCC(F)Cn2cc(C(=O)NCc3cncc(C(F)(F)F)c3)nn2)c(=O)c1F` (centres unmarked) [Example 350, 1-{4-[4-(2-cyclobutylacetamido)-3-fluoro-2-oxo-1,2-dihydropyridin-1-yl]-2-fluorobutyl}-N-{[5-(trifluoromethyl)pyridin-3-yl]methyl}-1H-1,2,3-triazole-4-carboxamide], the pIC50 in assay [1] was more than 7.00. For the same compound, the pEC50 in assay [2] was more than 7.00.

Consider `CS(=O)(=O)N1CCC(CC(=O)Nc2ccn(CCC(F)Cn3cc(C(=O)NCc4cccc(OC(F)(F)F)c4)nn3)c(=O)c2F)CC1` (centres unmarked) [Example 302, 1-(2-fluoro-4-{3-fluoro-4-[2-(1-methanesulfonylpiperidin-4-yl)acetamido]-2-oxo-1,2-dihydropyridin-1-yl}butyl)-N-{[3-(trifluoromethoxy)phenyl]methyl}-1H-1,2,3-triazole-4-carboxamide], for which the pIC50 in assay [1] is more than 7.00. The negative logarithm of the EC50 (pEC50) in assay [2] was 6.30 to 7.00.

For the compound `CC(=O)Nc1ccn(CCCCc2nnc(NC(=O)Cc3ccccc3)s2)c(=O)n1` [Example 18], in assay [1], the pIC50 was 6.30 to 7.00. The pEC50 in assay [2] was less than 5.30.

Consider `O=C(Cc1ccccc1)Nc1nnc(CCCCn2ccc(NC(=O)[C@@H](O)c3ccccc3)nc2=O)s1` [Example 83, (2S)-2-hydroxy-N-(2-oxo-1-{4-[5-(2-phenylacetamido)-1,3,4-thiadiazol-2-yl]butyl}-1,2-dihydropyrimidin-4-yl)-2-phenylacetamide], for which the pIC50 in assay [1] was more than 7.00. The compound also showed a pEC50 in assay [2] of less than 5.30.

With `CO[C@H](C(=O)Nc1ccn(CC(F)CCn2cc(C(=O)NCc3cccc(OC(F)(F)F)c3)nn2)c(=O)c1F)c1ccccc1` (stereo partly drawn) [Example 309, 1-(3-fluoro-4-{3-fluoro-4-[(2S)-2-methoxy-2-phenylacetamido]-2-oxo-1,2-dihydropyridin-1-yl}butyl)-N-{[3-(trifluoromethoxy)phenyl]methyl}-1H-1,2,3-triazole-4-carboxamide], the pIC50 in assay [1] was 5.30 to 6.30. Besides, the pEC50 in assay [2] is 5.30 to 6.30.

For `O=C(Cc1cccc(OC(F)(F)F)c1)Nc1ccc(CCCCn2ccc(NC(=O)OC3CCCCC3)nc2=O)nn1` [Example 103, cyclohexyl N-{2-oxo-1-[4-(6-{2-[3-(trifluoromethoxy)phenyl]acetamido}pyridazin-3-yl)butyl]-1,2-dihydropyrimidin-4-yl}carbamate], the pIC50 in assay [1] was more than 7.00. Also, in assay [2], the pEC50 was more than 7.00.

As to `CC(C)CC(=O)Nc1ccn(CCCCn2cc(C(=O)NCc3cccc(OC(F)(F)F)c3)nn2)c(=O)c1` [Example 5, 1-(4-(4-(3-methylbutanamido)-2-oxopyridin-1(2H)-yl)butyl)-N-(3-(trifluoromethoxy)benzyl)-1H-1,2,3-triazole-4-carboxamide], the pIC50 in assay [1] was more than 7.00. In assay [2], the pEC50 is 6.30 to 7.00.

As to `C[C@H](NC(=O)Nc1ccn(CCCCc2ccc(NC(=O)Cc3ccccc3)nn2)c(=O)n1)c1ccccc1` [Example 90, N-(6-{4-[2-oxo-4-({[(1S)-1-phenylethyl]carbamoyl}amino)-1,2-dihydropyrimidin-1-yl]butyl}pyridazin-3-yl)-2-phenylacetamide], the pIC50 in assay [1] is 6.30 to 7.00. This compound also showed a pEC50 in assay [2] of less than 5.30.

Consider `CC(=O)OC(C(=O)Nc1ccn(CC[C@@H](F)Cn2cc(C(=O)NCc3cccc(OC(F)(F)F)c3)nn2)c(=O)c1F)c1ccccc1` (stereo in doubt) [Example 306, (R)-[(3-fluoro-1-{3-fluoro-4-[4-({[3-(trifluoromethoxy)phenyl]methyl}carbamoyl)-1H-1,2,3-triazol-1-yl]butyl}-2-oxo-1,2-dihydropyridin-4-yl)carbamoyl](phenyl)methyl acetate], for which, in assay [1], the pIC50 is more than 7.00. In addition, the negative logarithm of the EC50 (pEC50) in assay [2] was more than 7.00.

As to `CCOC(=O)N1CCN(CC(=O)Nc2ccn(CCC(F)Cn3cc(C(=O)NCc4cccc(OC(F)(F)F)c4)nn3)c(=O)c2)CC1` (centres unmarked) [Example 255, ethyl 4-{[(1-{3-fluoro-4-[4-({[3-(trifluoromethoxy)phenyl]methyl}carbamoyl)-1H-1,2,3-triazol-1-yl]butyl}-2-oxo-1,2-dihydropyridin-4-yl)carbamoyl]methyl}piperazine-1-carboxylate], the pIC50 in assay [1] was more than 7.00. The same compound showed a pEC50 in assay [2] of more than 7.00.

`O=C(CC1CCC1)Nc1cnn(CCC(F)Cn2cc(C(=O)NCc3cc(C(F)(F)F)ccn3)nn2)c(=O)c1` (centres unmarked) [Example 401, 1-{4-[4-(2-cyclobutylacetamido)-6-oxo-1,6-dihydropyridazin-1-yl]-2-fluorobutyl}-N-{[4-(trifluoromethyl)pyridin-2-yl]methyl}-1H-1,2,3-triazole-4-carboxamide]: the pIC50 in assay [1] was more than 7.00. Also, in assay [2], the pEC50 is 6.30 to 7.00.

Turning to `O=C(Cc1ccccc1)Nc1ccn(CCCCn2cc(C(=O)NCc3cccc(OC(F)(F)F)c3)nn2)c(=O)c1` [Example 33, 1-{4-[2-oxo-4-(2-phenylacetamido)-1,2-dihydropyridin-1-yl]butyl}-N-{[3-(trifluoromethoxy)phenyl]methyl}-1H-1,2,3-triazole-4-carboxamide], the pIC50 in assay [1] is more than 7.00. For the same compound, in assay [2], the pEC50 is 6.30 to 7.00.
